Experimental data reported in patent publication EP4211126B1, “PHOTOCHEMICAL SYNTHESIS OF LOW PARTICLE SIZE MONODISPERSE GOLD NANOPARTICLES, LOADING WITH CANCER DRUG, AND DETERMINATION OF CYTOTOXIC ACTIVITY OF THE SAME” (Yildiz Teknik Universitesi, priority 2020, dated 2022).

System: acute promyelocytic leukemia (HL-60) cells
Experiment: MTT colorimetric cytotoxicity test
Assay type: cell-based
Conditions: 72 hours of incubation, compared with DOXO in free form
Experimental: MTT (3- (4,5-dimethylthiazol-2-yl) -2,5-diphenyl-2H-tetrazolium bromide) colorimetric test allows the quantitation of living cells whose mitochondrial activity is maintained in the culture medium. […] P<0.05 was considered significant.
According to MTT experiments, after 72 hours of incubation, the effect of DOXO in free form, i.e., not loaded on AuNps, as well as the DOXO-loaded AuNps was investigated for acute promyelocytic leukemia (HL-60) and chronic myeloid leukemia (K562) cells, and the results are given in Figure 5 and Figure 6, respectively.

## COc1cccc2c1C(=O)c1c(O)c3c(c(O)c1C2=O)C[C@@](O)(C(=O)CO)C[C@@H]3O[C@H]1C[C@H](N)[C@H](O)[C@H](C)O1 [DOXO, Doxorubicin]
  cytotoxic effect (cell viability): should be used in higher amounts in order to have a similar cytotoxic effect
